# Results published in patent US9708314B2, “Heterocyclic amide compound” (NISSAN CHEMICAL INDUSTRIES, LTD., priority 2013, dated 2017).
# How the values were obtained:
# Format in all cases: in vivo
# [1] = test system: Echinochloa crus-galli var. crus-galli; test: Test Example 3: herbicidal effect by application to foliage (Wagner pot, water depth 0.1-0.5 cm); conditions: Nineteenth Table; for H (herbicidal effect grade): application to foliage
# Outline: (§1)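 Post-emergence foliar application at a stated g/ha rate to plants grown 14 days from seed in alluvial soil, greenhouse 25–30 °C. Visual score after 3 weeks: 0 (≤5% effect) through 5 (≥90%).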
# Cyperus difformis = test: as above; conditions: Nineteenth Table; for E (herbicidal effect grade): application to foliage
# Outline: as §1
# Leptochloa chinensis = test: as above; conditions: Nineteenth Table; for D (herbicidal effect grade): application to foliage
# Outline: as §1
# [2] = test system: directly sowed Oryza sativa; test: Test Example 3: effect on crop by application to foliage (Wagner pot, water depth 0.1-0.5 cm); conditions: Nineteenth Table; for b (effect on crop grade): application to foliage
# Outline: as §1
# [3] = test system: Beta vulgaris ssp. vulgaris; test: Test Example 4: effect on crop by application to foliage (diluvial soil, plastic box); conditions: for f (Beta vulgaris ssp. vulgaris) effect on crop grade: foliage application
# Outline: (§2)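 Read-out is a 0–5 visual grade of herbicidal ratio (5: ≥90%, almost withered; 0: ≤5%) taken three weeks after treatment. Compound was applied as a diluted emulsion to stem and leaf parts of 14-day greenhouse-grown plants (25° C. to 30° C.) at rates expressed as g/ha.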
# Zea mays = test: as above; conditions: for b (Zea mays) effect on crop grade: foliage application
# Outline: as §2
# [4] = test system: directly sowed Oryza sativa; test: as above; conditions: for d (directly sowed Oryza sativa) effect on crop grade: foliage application
# Outline: as §2
# Glycine max = test: as above; conditions: for c (Glycine max) effect on crop grade: foliage application
# Outline: as §2
# Brassica campestris L. = test: as above; conditions: for g (Brassica campestris L.) effect on crop grade: foliage application
# Outline: as §2
# Triticum aestivum = test: as above; conditions: for e (Triticum aestivum) effect on crop grade: foliage application
# Outline: as §2
# Apera spica-venti. = test: Test Example 4: herbicidal effect by application to foliage (diluvial soil, plastic box); conditions: for L (Apera spica-venti.) herbicidal effect grade: foliage application
# Outline: as §2
# Amaranthus retroflexus = test: as above; conditions: for N (Amaranthus retroflexus) herbicidal effect grade: foliage application
# Outline: as §2
# Lolium multiflorum Lam. = test: as above; conditions: for K (Lolium multiflorum Lam.) herbicidal effect grade: foliage application
# Outline: as §2
# Avena fatua = test: as above; conditions: for I (Avena fatua) herbicidal effect grade: foliage application
# Outline: as §2
# Stellaria media = test: as above; conditions: for P (Stellaria media) herbicidal effect grade: foliage application
# Outline: as §2
# Alopecurus myosuroides = test: as above; conditions: for J (Alopecurus myosuroides) herbicidal effect grade: foliage application
# Outline: as §2
# Abutilon theophrasti = test: as above; conditions: for M (Abutilon theophrasti) herbicidal effect grade: foliage application
# Outline: as §2
# [5] = test system: Echinochloa crus-galli var. crus-galli; test: as above; conditions: for H (Echinochloa crus-galli var. crus-galli) herbicidal effect grade: foliage application
# Outline: as §2
# Digitaria ciliaris = test: as above; conditions: for F (Digitaria ciliaris) herbicidal effect grade: foliage application
# Outline: as §2
# Setaria viridis = test: as above; conditions: for G (Setaria viridis) herbicidal effect grade: foliage application
# Outline: as §2
# Galium spurium = test: as above; conditions: for Q (Galium spurium) herbicidal effect grade: foliage application
# Outline: as §2
# Chenopodium album = test: as above; conditions: for O (Chenopodium album) herbicidal effect grade: foliage application
# Outline: as §2
# Veronica persica = test: as above
# Outline: as §2
# [6] = application herbicide amount 320 g/ha
# [7] = application to foliage, application herbicide amount 320 g/ha
# [8] = application herbicide amount 131 g/ha
smiles,measurement,setting,value
Cc1nnc(NC(=O)c2ccc(C(F)(F)F)n3c(-c4ccc(C(F)(F)F)cc4)nnc23)o1 [1-045],H (Echinochloa crus-galli var. crus-galli) herbicidal ratio grade,[1]; [6],1 (Herbicidal ratio of 5% or more and less than 20%)
same,E (Cyperus difformis) herbicidal ratio grade,Cyperus difformis; [6],4 (Herbicidal ratio of 70% or more and less than 90%)
same,D (Leptochloa chinensis) herbicidal ratio grade,Leptochloa chinensis; [6],3 (Herbicidal ratio of 40% or more and less than 70%)
same,b (directly sowed Oryza sativa) effect on crop grade,[2]; [6],0 (Herbicidal ratio of 5% or less (almost no effect))
same,f (Beta vulgaris ssp. vulgaris) effect on crop,[3]; [7],3 (Herbicidal ratio of 40% or more and less than 70%)
same,b (Zea mays) effect on crop,Zea mays; [7],0 (Herbicidal ratio of 5% or less (almost no effect))
same,d (directly sowed Oryza sativa) effect on crop,[4]; [7],1 (Herbicidal ratio of 5% or more and less than 20%)
same,c (Glycine max) effect on crop,Glycine max; [7],0 (Herbicidal ratio of 5% or less (almost no effect))
same,g (Brassica campestris L.) effect on crop,Brassica campestris L.; [7],3 (Herbicidal ratio of 40% or more and less than 70%)
same,e (Triticum aestivum) effect on crop,Triticum aestivum; [7],0 (Herbicidal ratio of 5% or less (almost no effect))
same,L (Apera spica-venti.) herbicidal effect,Apera spica-venti.; [7],0 (Herbicidal ratio of 5% or less (almost no effect))
same,N (Amaranthus retroflexus) herbicidal effect,Amaranthus retroflexus; [7],4 (Herbicidal ratio of 70% or more and less than 90%)
same,K (Lolium multiflorum Lam.) herbicidal effect,Lolium multiflorum Lam.; [7],0 (Herbicidal ratio of 5% or less (almost no effect))
same,I (Avena fatua) herbicidal effect,Avena fatua; [7],0 (Herbicidal ratio of 5% or less (almost no effect))
same,P (Stellaria media) herbicidal effect,Stellaria media; [7],2 (Herbicidal ratio of 20% or more and less than 40%)
same,J (Alopecurus myosuroides) herbicidal effect,Alopecurus myosuroides; [7],0 (Herbicidal ratio of 5% or less (almost no effect))
same,M (Abutilon theophrasti) herbicidal effect,Abutilon theophrasti; [7],4 (Herbicidal ratio of 70% or more and less than 90%)
same,H (Echinochloa crus-galli var. crus-galli) herbicidal effect,[5]; [7],2 (Herbicidal ratio of 20% or more and less than 40%)
same,F (Digitaria ciliaris) herbicidal effect,Digitaria ciliaris; [7],3 (Herbicidal ratio of 40% or more and less than 70%)
same,G (Setaria viridis) herbicidal effect,Setaria viridis; [7],1 (Herbicidal ratio of 5% or more and less than 20%)
same,Q (Galium spurium) herbicidal effect,Galium spurium; [7],2 (Herbicidal ratio of 20% or more and less than 40%)
same,O (Chenopodium album) herbicidal effect,Chenopodium album; [7],5 (Herbicidal ratio of 90% or more (almost completely withered))
same,R (Veronica persica) herbicidal effect,Veronica persica; [7],3 (Herbicidal ratio of 40% or more and less than 70%)
Cn1nnnc1NC(=O)c1ccc(C(F)(F)F)n2c(CS(=O)(=O)CC(F)(F)F)nnc12 [2-036],H (herbicidal effect grade),[1]; [6],4 (Herbicidal ratio of 70% or more and less than 90%)
same,E (herbicidal effect grade),Cyperus difformis; [6],4 (Herbicidal ratio of 70% or more and less than 90%)
same,D (herbicidal effect grade),Leptochloa chinensis; [6],5 (Herbicidal ratio of 90% or more (almost completely withered))
same,b (effect on crop grade),[2]; [6],1 (Herbicidal ratio of 5% or more and less than 20%)
same,f (Beta vulgaris ssp. vulgaris) effect on crop grade,[3]; 320 g/ha,5 (Herbicidal ratio of 90% or more (almost completely withered))
same,b (Zea mays) effect on crop grade,Zea mays; 320 g/ha,0 (Herbicidal ratio of 5% or less (almost no effect))
same,d (directly sowed Oryza sativa) effect on crop grade,[4]; 320 g/ha,2 (Herbicidal ratio of 20% or more and less than 40%)
same,c (Glycine max) effect on crop grade,Glycine max; 320 g/ha,0 (Herbicidal ratio of 5% or less (almost no effect))
same,g (Brassica campestris L.) effect on crop grade,Brassica campestris L.; 320 g/ha,3 (Herbicidal ratio of 40% or more and less than 70%)
same,e (Triticum aestivum) effect on crop grade,Triticum aestivum; 320 g/ha,0 (Herbicidal ratio of 5% or less (almost no effect))
same,L (Apera spica-venti.) herbicidal effect grade,Apera spica-venti.; 320 g/ha,3 (Herbicidal ratio of 40% or more and less than 70%)
same,N (Amaranthus retroflexus) herbicidal effect grade,Amaranthus retroflexus; 320 g/ha,5 (Herbicidal ratio of 90% or more (almost completely withered))
same,K (Lolium multiflorum Lam.) herbicidal effect grade,Lolium multiflorum Lam.; 320 g/ha,0 (Herbicidal ratio of 5% or less (almost no effect))
same,I (Avena fatua) herbicidal effect grade,Avena fatua; 320 g/ha,1 (Herbicidal ratio of 5% or more and less than 20%)
same,P (Stellaria media) herbicidal effect grade,Stellaria media; 320 g/ha,5 (Herbicidal ratio of 90% or more (almost completely withered))
same,J (Alopecurus myosuroides) herbicidal effect grade,Alopecurus myosuroides; 320 g/ha,0 (Herbicidal ratio of 5% or less (almost no effect))
same,M (Abutilon theophrasti) herbicidal effect grade,Abutilon theophrasti; 320 g/ha,5 (Herbicidal ratio of 90% or more (almost completely withered))
same,H (Echinochloa crus-galli var. crus-galli) herbicidal effect grade,[5]; 320 g/ha,5 (Herbicidal ratio of 90% or more (almost completely withered))
same,F (Digitaria ciliaris) herbicidal effect grade,Digitaria ciliaris; 320 g/ha,5 (Herbicidal ratio of 90% or more (almost completely withered))
same,G (Setaria viridis) herbicidal effect grade,Setaria viridis; 320 g/ha,4 (Herbicidal ratio of 70% or more and less than 90%)
same,Q (Galium spurium) herbicidal effect grade,Galium spurium; 320 g/ha,4 (Herbicidal ratio of 70% or more and less than 90%)
same,O (Chenopodium album) herbicidal effect grade,Chenopodium album; 320 g/ha,5 (Herbicidal ratio of 90% or more (almost completely withered))
same,R (Veronica persica) herbicidal effect grade,"Veronica persica; foliage application, 320 g/ha",4 (Herbicidal ratio of 70% or more and less than 90%)
CC(C)c1nnc2c(C(=O)Nc3nnnn3C)ccc(-c3ccccc3)n12 [2-055],H (herbicidal effect grade),[1]; [8],2 (Herbicidal ratio of 20% or more and less than 40%)
same,E (herbicidal effect grade),Cyperus difformis; [8],0 (Herbicidal ratio of 5% or less (almost no effect))
same,D (herbicidal effect grade),Leptochloa chinensis; [8],0 (Herbicidal ratio of 5% or less (almost no effect))
same,b (effect on crop grade),[2]; [8],0 (Herbicidal ratio of 5% or less (almost no effect))
same,f (Beta vulgaris ssp. vulgaris) effect on crop grade,[3]; 131 g/ha,1 (Herbicidal ratio of 5% or more and less than 20%)
same,b (Zea mays) effect on crop grade,Zea mays; 131 g/ha,0 (Herbicidal ratio of 5% or less (almost no effect))
same,d (directly sowed Oryza sativa) effect on crop grade,[4]; 131 g/ha,1 (Herbicidal ratio of 5% or more and less than 20%)
same,c (Glycine max) effect on crop grade,Glycine max; 131 g/ha,0 (Herbicidal ratio of 5% or less (almost no effect))
same,g (Brassica campestris L.) effect on crop grade,Brassica campestris L.; 131 g/ha,0 (Herbicidal ratio of 5% or less (almost no effect))
same,e (Triticum aestivum) effect on crop grade,Triticum aestivum; 131 g/ha,0 (Herbicidal ratio of 5% or less (almost no effect))
same,L (Apera spica-venti.) herbicidal effect grade,Apera spica-venti.; 131 g/ha,0 (Herbicidal ratio of 5% or less (almost no effect))
same,N (Amaranthus retroflexus) herbicidal effect grade,Amaranthus retroflexus; 131 g/ha,3 (Herbicidal ratio of 40% or more and less than 70%)
same,K (Lolium multiflorum Lam.) herbicidal effect grade,Lolium multiflorum Lam.; 131 g/ha,0 (Herbicidal ratio of 5% or less (almost no effect))
same,I (Avena fatua) herbicidal effect grade,Avena fatua; 131 g/ha,0 (Herbicidal ratio of 5% or less (almost no effect))
same,P (Stellaria media) herbicidal effect grade,Stellaria media; 131 g/ha,4 (Herbicidal ratio of 70% or more and less than 90%)
same,J (Alopecurus myosuroides) herbicidal effect grade,Alopecurus myosuroides; 131 g/ha,0 (Herbicidal ratio of 5% or less (almost no effect))
same,M (Abutilon theophrasti) herbicidal effect grade,Abutilon theophrasti; 131 g/ha,4 (Herbicidal ratio of 70% or more and less than 90%)
same,H (Echinochloa crus-galli var. crus-galli) herbicidal effect grade,[5]; 131 g/ha,0 (Herbicidal ratio of 5% or less (almost no effect))
same,F (Digitaria ciliaris) herbicidal effect grade,Digitaria ciliaris; 131 g/ha,0 (Herbicidal ratio of 5% or less (almost no effect))
same,G (Setaria viridis) herbicidal effect grade,Setaria viridis; 131 g/ha,0 (Herbicidal ratio of 5% or less (almost no effect))
same,Q (Galium spurium) herbicidal effect grade,Galium spurium; 131 g/ha,0 (Herbicidal ratio of 5% or less (almost no effect))
same,O (Chenopodium album) herbicidal effect grade,Chenopodium album; 131 g/ha,5 (Herbicidal ratio of 90% or more (almost completely withered))
